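1) Cells in 96-well plates. 2) Compound, 48 h, 5 concentrations. 3) Linear interpolation between surrounding doses. 4) Unreached endpoint = highest concentration. GI50: concentration for 50% inhibition of growth.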 Active and inactive are the calls of the source. Rule as the data show it: active = GI50 up to about 1.1 µM and inactive = higher.
What was measured:
Experiment in all cases: NCI tumour cell line growth inhibition, 48 h
NCI/ADR-RES = test system: NCI/ADR-RES
A549 = test system: A549
SW-620 = test system: SW-620
ACHN = test system: ACHN
K562 = test system: K562
EKVX = test system: EKVX
SF-539 = test system: SF-539
CCRF-CEM = test system: CCRF-CEM
786-0 = test system: 786-0
KM12 = test system: KM12
LOX IMVI = test system: LOX IMVI
OVCAR-4 = test system: OVCAR-4
OVCAR-8 = test system: OVCAR-8
RPMI-8226 = test system: RPMI-8226
TK-10 = test system: TK-10
UACC-257 = test system: UACC-257
SK-MEL-28 = test system: SK-MEL-28
SF-295 = test system: SF-295
MDA-MB-231 = test system: MDA-MB-231
HCT-15 = test system: HCT-15
UO-31 = test system: UO-31
HOP-92 = test system: HOP-92
SR = test system: SR
RXF 393 = test system: RXF 393
NCI-H460 = test system: NCI-H460
UACC-62 = test system: UACC-62
OVCAR-5 = test system: OVCAR-5
U-251 = test system: U-251
BT-549 = test system: BT-549
CAKI-1 = test system: CAKI-1
NCI-H226 = test system: NCI-H226
HCT-116 = test system: HCT-116
HL-60 = test system: HL-60
MDA-N = test system: MDA-N
NCI-H522 = test system: NCI-H522
IGROV-1 = test system: IGROV-1
HCC 2998 = test system: HCC 2998
SK-MEL-5 = test system: SK-MEL-5
SNB-75 = test system: SNB-75
COLO 205 = test system: COLO 205
MCF7 = test system: MCF7
M14 = test system: M14
MDA-MB-435 = test system: MDA-MB-435
NCI-H23 = test system: NCI-H23
DU-145 = test system: DU-145
A498 = test system: A498
SK-OV-3 = test system: SK-OV-3
SNB-19 = test system: SNB-19
MOLT-4 = test system: MOLT-4
SN12C = test system: SN12C
Malme-3M = test system: Malme-3M
Hs-578T = test system: Hs-578T
SK-MEL-2 = test system: SK-MEL-2
PC-3 = test system: PC-3
HT-29 = test system: HT-29
HOP-62 = test system: HOP-62
SF-268 = test system: SF-268
T47D = test system: T47D

## Cc1ccc(S(=O)(=O)Nn2c(S)c(C#N)c(-c3ccc(N(C)C)cc3)c(C#N)c2=O)cc1
NCI/ADR-RES
  GI50: 32 µM (inactive)
A549
  GI50: 40.5 µM (inactive)
SW-620
  GI50: 18.1 µM (inactive)
ACHN
  GI50: 20.6 µM (inactive)
K562
  GI50: 38.8 µM (inactive)
EKVX
  GI50: 23.6 µM (inactive)
SF-539
  GI50: 19 µM (inactive)
CCRF-CEM
  GI50: 5.57 µM (inactive)
786-0
  GI50: 28.6 µM (inactive)
KM12
  GI50: 24.6 µM (inactive)
LOX IMVI
  GI50: 22.1 µM (inactive)
OVCAR-4
  GI50: 17.1 µM (inactive)
OVCAR-8
  GI50: 15.9 µM (inactive)
RPMI-8226
  GI50: 15.6 µM (inactive)
TK-10
  GI50: 19.8 µM (inactive)
UACC-257
  GI50: 51.4 µM (inactive)
SK-MEL-28
  GI50: 20.1 µM (inactive)
SF-295
  GI50: 34.2 µM (inactive)
MDA-MB-231
  GI50: > 100 µM (inactive)
HCT-15
  GI50: 20.3 µM
UO-31
  GI50: 16.9 µM (inactive)
HOP-92
  GI50: 29.6 µM (inactive)
SR
  GI50: 23.7 µM (inactive)
RXF 393
  GI50: 19.3 µM (inactive)
NCI-H460
  GI50: 15.2 µM (inactive)
UACC-62
  GI50: 25.7 µM (inactive)
OVCAR-5
  GI50: 35 µM (inactive)
U-251
  GI50: 21.5 µM (inactive)
BT-549
  GI50: 22.2 µM (inactive)
CAKI-1
  GI50: > 100 µM (inactive)
NCI-H226
  GI50: 2.16 µM (inactive)
HCT-116
  GI50: 28.2 µM (inactive)
HL-60
  GI50: 20.7 µM (inactive)
MDA-N
  GI50: > 100 µM (inactive)
NCI-H522
  GI50: 14.5 µM (inactive)
IGROV-1
  GI50: 10.8 µM (inactive)
HCC 2998
  GI50: 38.2 µM (inactive)
SK-MEL-5
  GI50: 17.7 µM (inactive)
SNB-75
  GI50: 35.2 µM (inactive)
COLO 205
  GI50: 22 µM (inactive)
MCF7
  GI50: 30.8 µM (inactive)
M14
  GI50: 31.2 µM (inactive)
MDA-MB-435
  GI50: 19.6 µM (inactive)
NCI-H23
  GI50: 19.1 µM (inactive)
DU-145
  GI50: 40.6 µM (inactive)
A498
  GI50: 17.3 µM (inactive)
SK-OV-3
  GI50: 48.8 µM (inactive)
SNB-19
  GI50: 43 µM (inactive)
MOLT-4
  GI50: 23.4 µM (inactive)
SN12C
  GI50: 26.4 µM (inactive)
Malme-3M
  GI50: 18.7 µM (inactive)

## O=C(/C=C(\C(=O)c1cccs1)c1cccs1)c1ccc(C(=O)/C=C(\C(=O)c2cccs2)c2cccs2)cc1
NCI/ADR-RES
  GI50: > 100 µM (inactive)
A549
  GI50: > 100 µM (inactive)
SW-620
  GI50: > 100 µM (inactive)
ACHN
  GI50: > 100 µM (inactive)
K562
  GI50: > 100 µM (inactive)
EKVX
  GI50: > 100 µM (inactive)
SF-539
  GI50: > 100 µM (inactive)
CCRF-CEM
  GI50: > 100 µM (inactive)
Hs-578T
  GI50: > 100 µM (inactive)
786-0
  GI50: > 100 µM (inactive)
KM12
  GI50: > 100 µM (inactive)
OVCAR-4
  GI50: > 100 µM (inactive)
OVCAR-8
  GI50: > 100 µM (inactive)
RPMI-8226
  GI50: > 100 µM (inactive)
TK-10
  GI50: > 100 µM (inactive)
UACC-257
  GI50: > 100 µM (inactive)
SK-MEL-2
  GI50: > 100 µM (inactive)
SK-MEL-28
  GI50: > 100 µM (inactive)
SF-295
  GI50: > 100 µM (inactive)
MDA-MB-231
  GI50: > 100 µM (inactive)
HCT-15
  GI50: > 100 µM
UO-31
  GI50: > 100 µM (inactive)
SR
  GI50: > 100 µM (inactive)
RXF 393
  GI50: > 100 µM (inactive)
NCI-H460
  GI50: > 100 µM (inactive)
UACC-62
  GI50: > 100 µM (inactive)
U-251
  GI50: > 100 µM (inactive)
CAKI-1
  GI50: > 100 µM (inactive)
NCI-H226
  GI50: > 100 µM (inactive)
HCT-116
  GI50: > 100 µM (inactive)
HL-60
  GI50: > 100 µM (inactive)
PC-3
  GI50: > 100 µM (inactive)
IGROV-1
  GI50: > 100 µM (inactive)
HT-29
  GI50: > 100 µM (inactive)
HCC 2998
  GI50: > 100 µM (inactive)
SK-MEL-5
  GI50: > 100 µM (inactive)
SNB-75
  GI50: > 100 µM (inactive)
COLO 205
  GI50: > 100 µM (inactive)
MCF7
  GI50: > 100 µM (inactive)
HOP-62
  GI50: > 100 µM (inactive)
M14
  GI50: > 100 µM (inactive)
SF-268
  GI50: > 100 µM (inactive)
MDA-MB-435
  GI50: > 100 µM (inactive)
DU-145
  GI50: > 100 µM (inactive)
T47D
  GI50: > 100 µM (inactive)
SK-OV-3
  GI50: > 100 µM (inactive)
SNB-19
  GI50: > 100 µM (inactive)
MOLT-4
  GI50: > 100 µM (inactive)
SN12C
  GI50: > 100 µM (inactive)

## COc1ccc(C2=C(OC(=O)N(C)C)c3cccn3-c3cc(C(F)(F)F)ccc3S2)cc1
A549
  GI50: > 10 µM (inactive)
SW-620
  GI50: > 10 µM (inactive)
K562
  GI50: > 10 µM (inactive)
EKVX
  GI50: > 10 µM (inactive)
CCRF-CEM
  GI50: > 10 µM (inactive)
786-0
  GI50: > 10 µM (inactive)
KM12
  GI50: 0.467 µM (active)
LOX IMVI
  GI50: > 10 µM (inactive)
OVCAR-8
  GI50: > 10 µM (inactive)
RPMI-8226
  GI50: 3.75 µM (inactive)
TK-10
  GI50: > 10 µM (inactive)
UACC-257
  GI50: > 10 µM (inactive)
SK-MEL-28
  GI50: > 10 µM (inactive)
SF-295
  GI50: > 10 µM (inactive)
HCT-15
  GI50: > 10 µM
SR
  GI50: 4.99 µM (inactive)
UACC-62
  GI50: > 10 µM (inactive)
CAKI-1
  GI50: > 10 µM (inactive)
HL-60
  GI50: 6.03 µM (inactive)
PC-3
  GI50: 4.3 µM (inactive)
MDA-N
  GI50: > 10 µM (inactive)
IGROV-1
  GI50: > 10 µM (inactive)
HT-29
  GI50: > 10 µM (inactive)
HCC 2998
  GI50: > 10 µM (inactive)
SK-MEL-5
  GI50: > 10 µM (inactive)
SNB-75
  GI50: > 10 µM (inactive)
COLO 205
  GI50: > 10 µM (inactive)
MCF7
  GI50: 9.29 µM (inactive)
HOP-62
  GI50: > 10 µM (inactive)
M14
  GI50: > 10 µM (inactive)
SF-268
  GI50: > 10 µM (inactive)
NCI-H23
  GI50: 8.81 µM (inactive)
DU-145
  GI50: > 10 µM (inactive)
T47D
  GI50: 3.47 µM (inactive)
SK-OV-3
  GI50: > 10 µM (inactive)
MOLT-4
  GI50: 4.79 µM (inactive)
SN12C
  GI50: > 10 µM (inactive)
Malme-3M
  GI50: > 10 µM (inactive)

— ChEMBL document CHEMBL1201862, “PubChem BioAssay data set” (2004)
